From the supplement of paper PMC13207355

Experiments:
Settings in all cases: exposure time: 72 h
E34 [1] = patient-derived glioblastoma stem cells of proneural subtype; experiment: phenotypic distance (Euclidean, principal components) from DMSO controls (arbitrary units); higher = stronger morphological change
E31 [2] = patient-derived glioblastoma stem cells of proneural subtype; experiment: as above
E28 [3] = patient-derived glioblastoma stem cells of classical subtype; experiment: as above
E21 [4] = patient-derived glioblastoma stem cells of mesenchymal subtype; experiment: as above
E57 [5] = patient-derived glioblastoma stem cells of mesenchymal subtype; experiment: as above
E13 [6] = patient-derived glioblastoma stem cells of classical subtype; experiment: as above
FT3469 [7] = normal neural stem cell line; experiment: as above
E34 [8] = experiment: surviving fraction (nuclei count normalised to DMSO); higher = more cells surviving (less toxic)
E31 [9] = experiment: as above
E28 [10] = experiment: as above
E21 [11] = experiment: as above
E57 [12] = experiment: as above
E13 [13] = experiment: as above
FT3469 [14] = experiment: as above
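Throughout, for phenotypic distance (Euclidean, principal components) from DMSO controls: cell Painting imaging in 384-well plates, CellProfiler features reduced to at least 20 principal components, Euclidean distance versus same-plate DMSO vehicle wells (0.1% v/v), median over six images per well.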
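Throughout, for surviving fraction (nuclei count normalised to DMSO): nuclei counted by high-content imaging of Hoechst-stained cells in laminin-coated 384-well plates, relative to 0.1% DMSO vehicle wells, with staurosporine as cell-death control.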

CC(=O)[C@]1(O)Cc2c(O)c3c(c(O)c2[C@@H](O[C@H]2C[C@H](N)[C@H](O)[C@H](C)O2)C1)C(=O)c1ccccc1C3=O [Idarubicin]
Settings	phenotypic distance	surviving fraction
E13 [6], 4.1 nM	7.02	–
E13 [6], 12.3 nM	6.41	–
E13 [6], 37 nM	6.27	–
E13 [6], 111.1 nM	5.38	–
E13 [6], 333.3 nM	6.31	–
E13 [6], 1000 nM	6.11	–
E13 [6], 3000 nM	6.59	–
E13 [13], 4.1 nM	–	0.402
E13 [13], 12.3 nM	–	0.404
E13 [13], 37 nM	–	0.255
E13 [13], 111.1 nM	–	0.25
E13 [13], 333.3 nM	–	0.179
E13 [13], 1000 nM	–	0.0911
E13 [13], 3000 nM	–	0.0243
E21 [4], 4.1 nM	7.83	–
E21 [4], 12.3 nM	6.13	–
E21 [4], 37 nM	5.05	–
E21 [4], 111.1 nM	5.05	–
E21 [4], 333.3 nM	5.58	–
E21 [4], 1000 nM	5.16	–
E21 [4], 3000 nM	8.48	–
E21 [11], 4.1 nM	–	0.371
E21 [11], 12.3 nM	–	0.371
E21 [11], 37 nM	–	0.165
E21 [11], 111.1 nM	–	0.193
E21 [11], 333.3 nM	–	0.167
E21 [11], 1000 nM	–	0.164
E21 [11], 3000 nM	–	0.0457
E28 [3], 4.1 nM	2.71	–
E28 [3], 12.3 nM	3.28	–
E28 [3], 37 nM	3.42	–
E28 [3], 111.1 nM	2.57	–
E28 [3], 333.3 nM	3.02	–
E28 [3], 1000 nM	4.74	–
E28 [3], 3000 nM	5.14	–
E28 [10], 4.1 nM	–	0.386
E28 [10], 12.3 nM	–	0.41
E28 [10], 37 nM	–	0.313
E28 [10], 111.1 nM	–	0.304
E28 [10], 333.3 nM	–	0.271
E28 [10], 1000 nM	–	0.18
E28 [10], 3000 nM	–	0.241
E31 [2], 4.1 nM	2.69	–
E31 [2], 12.3 nM	2.97	–
E31 [2], 37 nM	3.12	–
E31 [2], 111.1 nM	4.59	–
E31 [2], 333.3 nM	4.15	–
E31 [2], 1000 nM	5.28	–
E31 [2], 3000 nM	4.78	–
E31 [9], 4.1 nM	–	0.259
E31 [9], 12.3 nM	–	0.226
E31 [9], 37 nM	–	0.179
E31 [9], 111.1 nM	–	0.149
E31 [9], 333.3 nM	–	0.139
E31 [9], 1000 nM	–	0.114
E31 [9], 3000 nM	–	0.072
E34 [1], 4.1 nM	4.82	–
E34 [1], 12.3 nM	4.66	–
E34 [1], 37 nM	2.72	–
E34 [1], 111.1 nM	2.83	–
E34 [1], 333.3 nM	2.83	–
E34 [1], 1000 nM	5.05	–
E34 [1], 3000 nM	4	–
E34 [8], 4.1 nM	–	0.611
E34 [8], 12.3 nM	–	0.511
E34 [8], 37 nM	–	0.54
E34 [8], 111.1 nM	–	0.538
E34 [8], 333.3 nM	–	0.479
E34 [8], 1000 nM	–	0.448
E34 [8], 3000 nM	–	0.15
E57 [5], 4.1 nM	11.4	–
E57 [5], 12.3 nM	9.36	–
E57 [5], 37 nM	6.52	–
E57 [5], 111.1 nM	6.05	–
E57 [5], 333.3 nM	5.69	–
E57 [5], 1000 nM	6.02	–
E57 [5], 3000 nM	6.32	–
E57 [12], 4.1 nM	–	0.197
E57 [12], 12.3 nM	–	0.205
E57 [12], 37 nM	–	0.146
E57 [12], 111.1 nM	–	0.166
E57 [12], 333.3 nM	–	0.14
E57 [12], 1000 nM	–	0.124
E57 [12], 3000 nM	–	0.0591
FT3469 [7], 4.1 nM	1.93	–
FT3469 [7], 12.3 nM	1.84	–
FT3469 [7], 37 nM	1.77	–
FT3469 [7], 111.1 nM	1.39	–
FT3469 [7], 333.3 nM	2.3	–
FT3469 [7], 1000 nM	3.94	–
FT3469 [7], 3000 nM	5.56	–
FT3469 [14], 4.1 nM	–	0.654
FT3469 [14], 12.3 nM	–	0.716
FT3469 [14], 37 nM	–	0.663
FT3469 [14], 111.1 nM	–	0.592
FT3469 [14], 333.3 nM	–	0.495
FT3469 [14], 1000 nM	–	0.439
FT3469 [14], 3000 nM	–	0.0825

CCCSc1ccc2[nH]c(NC(=O)OC)nc2c1 [Albendazole]
Settings	phenotypic distance	surviving fraction
E13 [6], 4.1 nM	1.01	–
E13 [6], 12.3 nM	0.56	–
E13 [6], 37 nM	0.737	–
E13 [6], 111.1 nM	2.95	–
E13 [6], 333.3 nM	4.43	–
E13 [6], 1000 nM	4.68	–
E13 [6], 3000 nM	7.36	–
E13 [13], 4.1 nM	–	0.787
E13 [13], 12.3 nM	–	0.877
E13 [13], 37 nM	–	0.931
E13 [13], 111.1 nM	–	0.655
E13 [13], 333.3 nM	–	0.439
E13 [13], 1000 nM	–	0.373
E13 [13], 3000 nM	–	0.222
E21 [4], 4.1 nM	1.02	–
E21 [4], 12.3 nM	0.918	–
E21 [4], 37 nM	1.01	–
E21 [4], 111.1 nM	1.35	–
E21 [4], 333.3 nM	3.4	–
E21 [4], 1000 nM	7.12	–
E21 [4], 3000 nM	8.62	–
E21 [11], 4.1 nM	–	0.887
E21 [11], 12.3 nM	–	0.807
E21 [11], 37 nM	–	0.834
E21 [11], 111.1 nM	–	0.804
E21 [11], 333.3 nM	–	0.755
E21 [11], 1000 nM	–	0.169
E21 [11], 3000 nM	–	0.118
E28 [3], 4.1 nM	0.748	–
E28 [3], 12.3 nM	0.904	–
E28 [3], 37 nM	0.875	–
E28 [3], 111.1 nM	1.25	–
E28 [3], 333.3 nM	2.28	–
E28 [3], 1000 nM	3.22	–
E28 [3], 3000 nM	3.85	–
E28 [10], 4.1 nM	–	0.86
E28 [10], 12.3 nM	–	0.988
E28 [10], 37 nM	–	0.734
E28 [10], 111.1 nM	–	1.04
E28 [10], 333.3 nM	–	0.719
E28 [10], 1000 nM	–	0.536
E28 [10], 3000 nM	–	0.28
E31 [2], 4.1 nM	0.384	–
E31 [2], 12.3 nM	0.712	–
E31 [2], 37 nM	0.564	–
E31 [2], 111.1 nM	1.13	–
E31 [2], 333.3 nM	3.4	–
E31 [2], 1000 nM	5.94	–
E31 [2], 3000 nM	5.22	–
E31 [9], 4.1 nM	–	0.993
E31 [9], 12.3 nM	–	0.833
E31 [9], 37 nM	–	0.874
E31 [9], 111.1 nM	–	0.758
E31 [9], 333.3 nM	–	0.408
E31 [9], 1000 nM	–	0.186
E31 [9], 3000 nM	–	0.0928
E34 [1], 4.1 nM	0.51	–
E34 [1], 12.3 nM	1.47	–
E34 [1], 37 nM	1.32	–
E34 [1], 111.1 nM	0.857	–
E34 [1], 333.3 nM	2.54	–
E34 [1], 1000 nM	3.76	–
E34 [1], 3000 nM	5.5	–
E34 [8], 4.1 nM	–	0.934
E34 [8], 12.3 nM	–	1.06
E34 [8], 37 nM	–	0.937
E34 [8], 111.1 nM	–	0.927
E34 [8], 333.3 nM	–	0.656
E34 [8], 1000 nM	–	0.476
E34 [8], 3000 nM	–	0.439
E57 [5], 4.1 nM	0.729	–
E57 [5], 12.3 nM	1.11	–
E57 [5], 37 nM	0.859	–
E57 [5], 111.1 nM	1.5	–
E57 [5], 333.3 nM	3.52	–
E57 [5], 1000 nM	5.59	–
E57 [5], 3000 nM	4.71	–
E57 [12], 4.1 nM	–	1.02
E57 [12], 12.3 nM	–	0.99
E57 [12], 37 nM	–	0.873
E57 [12], 111.1 nM	–	0.909
E57 [12], 333.3 nM	–	0.715
E57 [12], 1000 nM	–	0.257
E57 [12], 3000 nM	–	0.0825
FT3469 [7], 4.1 nM	0.912	–
FT3469 [7], 12.3 nM	1.05	–
FT3469 [7], 37 nM	0.721	–
FT3469 [7], 111.1 nM	1.33	–
FT3469 [7], 333.3 nM	2.27	–
FT3469 [7], 1000 nM	3.43	–
FT3469 [7], 3000 nM	3.98	–
FT3469 [14], 4.1 nM	–	0.783
FT3469 [14], 12.3 nM	–	0.812
FT3469 [14], 37 nM	–	0.76
FT3469 [14], 111.1 nM	–	0.924
FT3469 [14], 333.3 nM	–	0.725
FT3469 [14], 1000 nM	–	0.662
FT3469 [14], 3000 nM	–	0.504
